# Test results from patent US20240408169A1 (priority 2023, published 2024).
# pIC50: −log10 of the molar value. *1 amine or outer side, *2 acyl side, *3 side chain or, on linkers, in order; H or OH if unused. Where a SMILES comes first, the peptide text is derived from it. Bridges are numbered along the chain shown (N, C = ends). [ ]: non-standard residue; d: D form. The star is where a group is joined. X121 = C[C@@H]1CN(c2ccc(-c3ccc(Cl)cc3C[C@@H](C(=O)[*:2])N(C)[*:1])cc2)CCO1; X42 = CN([C@@H](Cc1cc(Cl)ccc1-c1cnn(S(=O)(=O)C2CC2)c1)C(=O)[*:2])[*:1]; X195 = CC(=O)Nc1ccc(-c2ccc(Cl)cc2C[C@@H](C(=O)[*:2])N(C)[*:1])cn1; X171 = CC(=O)N1CC=C(c2ncc(Cl)cc2C[C@@H](C(=O)[*:2])N(C)[*:1])CC1; X26 = CN([C@@H](Cc1cc(F)ccc1-c1cnn(C2CC2)c1)C(=O)[*:2])[*:1]; NMehhhLys(Me) = CN([C@@H](CCCCCCCN(C)[*:3])C(=O)[*:2])[*:1]; X125 = CN([C@@H](Cc1cc(Cl)ccc1-c1cncc(F)c1)C(=O)[*:2])[*:1]; X206 = CN([C@@H](Cc1cc(Cl)cnc1Cc1cnn(C)c1)C(=O)[*:2])[*:1]; X176 = CN([C@@H](Cc1cc(F)ccc1-c1cccnc1)C(=O)[*:2])[*:1]; NMe(hhhLys) = CN([C@@H](CCCCCCCN[*:3])C(=O)[*:2])[*:1]; X210 = CC(C)=Cc1ccc(Cl)cc1C[C@@H](C(=O)[*:2])N(C)[*:1]; Oxane2carbonyl(2R-CF3) = O=C([C@@]1(C(F)(F)F)CCCCO1)*; X164 = C=C(C)c1ccc(Cl)cc1C[C@@H](C(=O)[*:2])N(C)[*:1]; cBuCO(3,3-F2-1-CF3) = O=C(C1(C(F)(F)F)CC(F)(F)C1)*; Pro(trans-4-F) = O=C(O)[C@@H]1C[C@@H](F)CN1; X27 = O=C([C@]1(C(F)(F)F)CCCCO1)*; Gly(cPr) = N[C@H](C(=O)O)C1CC1
# How the values were obtained:
# [1] = target: T1, CyclinA2/CDK2 (Homo sapiens, UniProt P20248); assay: Fluorescence Polarization (FP) competitive binding assay, Cyclin A2/Cdk2; conditions: 8 nM Cyclin A2/Cdk2, 2 nM FAM probe; average of 2-3 independent experiments; read-out: Cyclin A FP IC50;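 also: plates equilibrated two hours at room temperature before polarization reading, IC50 fitted from eight-concentration compound titration curves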
# T1 construct: purchased CRELUX Protein Services
# [2] = target: T2, CyclinB1/CDK1 (Homo sapiens, UniProt P14635); assay: Fluorescence Polarization (FP) competitive binding assay, Cyclin B1/Cdk1; conditions: 10 nM Cyclin B1/Cdk1, 2 nM FAM probe; average of 2-3 independent experiments; read-out: Cyclin B FP IC50;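 also: fluorescence polarization read after equilibration at room temperature, with IC50 taken from serially diluted dose-response curves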
# T2 construct: purchased Eurofins, discovery 14-450
# [3] = target: T3, CyclinE1/CDK2 (Homo sapiens, UniProt P24864); assay: Fluorescence Polarization (FP) competitive binding assay, Cyclin E1/Cdk2; conditions: 10 nM Cyclin E1/Cdk2, 2 nM FAM probe; average of 2-3 independent experiments; read-out: Cyclin E FP IC50;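 also: readings taken after two-hour equilibration at room temperature in HEPES buffer with NaCl, DTT, NP-40 and BSA, IC50 fitted from eight-concentration serial dilution series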
# T3 construct: purchased Eurofins, discovery 14-475
# [4] = system: NCI-H1048 cells; assay: MTT proliferation assay, NCI-H1048; format: cell-based; conditions: 5 days compound exposure, 1:3 serial dilution starting at 10 μM;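 also: Dose-response in 96-well plates over 8 or 10 concentration points, with exposure spanning 3-4 cell doublings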
# [5] = system: OVCAR3 cells; assay: MTT proliferation assay, OVCAR3; format: cell-based; conditions: 5 days compound exposure, 1:3 serial dilution starting at 10 μM;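 also: compound given as an 8- or 10-point series, one day after plating, with exposure covering roughly 3-4 cell doublings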
SMILES,pIC50 [1],pIC50 [2],pIC50 [3],GI50 [4],GI50 [5]
"CC(C)C[C@@H]1NC(=O)[C@@H](N(C)C(=O)[C@@H](NC(=O)[C@@H]2C[C@@H](F)CN2C(=O)C2(C(F)(F)F)CC(F)(F)C2)C2CC2)CCCCCCCN(C)C(=O)[C@H](Cc2cc(Cl)ccc2-c2cnn(S(=O)(=O)C3CC3)c2)N(C)C1=O [Example 254] ({cBuCO(3,3-F2-1-CF3)}-[Pro(trans-4-F)][Gly(cPr)][NMehhhLys(Me)]L[X42]; lactam 3-C)",7.52,7.70,6.01,20 nM,20 nM
"CC(C)C[C@@H]1NC(=O)[C@@H](N(C)C(=O)[C@@H](NC(=O)[C@@H]2C[C@@H](F)CN2C(=O)C2(C(F)(F)F)CC(F)(F)C2)C2CC2)CCCCCCCN(C)C(=O)[C@H](Cc2cc(Cl)ccc2-c2cncc(F)c2)N(C)C1=O [Example 198] ({cBuCO(3,3-F2-1-CF3)}-[Pro(trans-4-F)][Gly(cPr)][NMehhhLys(Me)]L[X125]; lactam 3-C)",7.30,7.70,5.84,50 nM,50 nM
"C=C(C)c1ccc(Cl)cc1C[C@H]1C(=O)NCCCCCCC[C@H](N(C)C(=O)[C@@H](NC(=O)[C@@H]2C[C@@H](F)CN2C(=O)C2(C(F)(F)F)CC(F)(F)C2)C2CC2)C(=O)N[C@@H](CC(C)C)C(=O)N1C [Example 61] ({cBuCO(3,3-F2-1-CF3)}-[Pro(trans-4-F)][Gly(cPr)][NMe(hhhLys)]L[X164]; lactam 3-C)",7.70,7.70,6.00,20 nM,40 nM
CC(C)C[C@@H]1NC(=O)[C@@H](N(C)C(=O)[C@@H](NC(=O)[C@@H]2C[C@@H](F)CN2C(=O)[C@]2(C(F)(F)F)CCCCO2)C2CC2)CCCCCCCN(C)C(=O)[C@H](Cc2cc(F)ccc2-c2cnn(C3CC3)c2)N(C)C1=O [Example 146] (X27-[Pro(trans-4-F)][Gly(cPr)][NMehhhLys(Me)]L[X26]; lactam 3-C),7.52,7.70,7.00,20 nM,20 nM
CC(C)C[C@@H]1NC(=O)[C@@H](N(C)C(=O)[C@@H](NC(=O)[C@@H]2C[C@@H](F)CN2C(=O)C2(C(F)(F)F)CC(F)(F)C2)C2CC2)CCCC=CCCNC(=O)[C@H](Cc2cc(Cl)ccc2-c2cnn(C)c2)N(C)C1=O [Example 285],7.22,7.70,5.77,50 nM,30 nM
CC(C)C[C@@H]1NC(=O)[C@@H](N(C)C(=O)[C@@H](NC(=O)[C@@H]2C[C@@H](F)CN2C(=O)C2(C(F)(F)F)CC(F)(F)C2)C2CC2)CC=CCCCCNC(=O)[C@H](Cc2cc(Cl)ccc2C2=CCN(C(=O)C(C)(C)C)CC2)N(C)C1=O [Example 91],7.00,7.70,5.24,230 nM,260 nM
CC(C)C[C@@H]1NC(=O)[C@@H](N(C)C(=O)[C@@H](NC(=O)[C@@H]2C[C@@H](F)CN2C(=O)C2(C(F)(F)F)CC(F)(F)C2)C2CC2)C/C=C\CCCCN(C)C(=O)[C@H](Cc2cc(F)ccc2-c2cnn(S(C)(=O)=O)c2)N(C)C1=O [Example 278],7.15,7.70,6.55,10 nM,10 nM
"CC(C)=Cc1ccc(Cl)cc1C[C@H]1C(=O)NCCCCCCC[C@H](N(C)C(=O)[C@@H](NC(=O)[C@@H]2C[C@@H](F)CN2C(=O)C2(C(F)(F)F)CC(F)(F)C2)C2CC2)C(=O)N[C@@H](CC(C)C)C(=O)N1C [Example 62] ({cBuCO(3,3-F2-1-CF3)}-[Pro(trans-4-F)][Gly(cPr)][NMe(hhhLys)]L[X210]; lactam 3-C)",7.52,7.70,6.41,60 nM,70 nM
"CC(C)C[C@@H]1NC(=O)[C@@H](N(C)C(=O)[C@@H](NC(=O)[C@@H]2C[C@@H](F)CN2C(=O)C2(C(F)(F)F)CC(F)(F)C2)C2CC2)CCCCCCCNC(=O)[C@H](Cc2cc(F)ccc2-c2cccnc2)N(C)C1=O [Example 280] ({cBuCO(3,3-F2-1-CF3)}-[Pro(trans-4-F)][Gly(cPr)][NMe(hhhLys)]L[X176]; lactam 3-C)",7.40,7.70,6.49,10 nM,10 nM
"CC(=O)N1CC=C(c2ncc(Cl)cc2C[C@H]2C(=O)NCCCCCCC[C@H](N(C)C(=O)[C@@H](NC(=O)[C@@H]3C[C@@H](F)CN3C(=O)C3(C(F)(F)F)CC(F)(F)C3)C3CC3)C(=O)N[C@@H](CC(C)C)C(=O)N2C)CC1 [Example 302] ({cBuCO(3,3-F2-1-CF3)}-[Pro(trans-4-F)][Gly(cPr)][NMe(hhhLys)]L[X171]; lactam 3-C)",7.30,7.70,5.45,140 nM,120 nM
"CC(C)C[C@@H]1NC(=O)[C@@H](N(C)C(=O)[C@@H](NC(=O)[C@@H]2C[C@@H](F)CN2C(=O)C2(C(F)(F)F)CC(F)(F)C2)C2CC2)CCCCCCCN(C)C(=O)[C@H](Cc2cc(Cl)ccc2-c2ccc(N3CCO[C@H](C)C3)cc2)N(C)C1=O [Example 414] ({cBuCO(3,3-F2-1-CF3)}-[Pro(trans-4-F)][Gly(cPr)][NMehhhLys(Me)]L[X121]; lactam 3-C)",7.52,7.70,6.03,10 nM,10 nM
CC(C)C[C@@H]1NC(=O)[C@@H](N(C)C(=O)[C@@H](NC(=O)[C@@H]2C[C@@H](F)CN2C(=O)[C@@]2(C(F)(F)F)CCCCO2)C2CC2)CCCCCCCN(C)C(=O)[C@H](Cc2cc(Cl)cnc2Cc2cnn(C)c2)N(C)C1=O [Example 332] ({Oxane2carbonyl(2R-CF3)}-[Pro(trans-4-F)][Gly(cPr)][NMehhhLys(Me)]L[X206]; lactam 3-C),7.70,7.70,7.00,10 nM,10 nM
CC(C)C[C@@H]1NC(=O)[C@@H](N(C)C(=O)[C@@H](NC(=O)[C@@H]2C[C@@H](F)CN2C(=O)C2(C(F)(F)F)CC(F)(F)C2)C2CC2)CC=CCCCCN(C)C(=O)[C@H](Cc2cc(F)ccc2C2=CCCC2)N(C)C1=O [Example 46],7.70,7.70,6.46,720 nM,790 nM
"CC(=O)Nc1ccc(-c2ccc(Cl)cc2C[C@H]2C(=O)N(C)CCCCCCC[C@H](N(C)C(=O)[C@@H](NC(=O)[C@@H]3C[C@@H](F)CN3C(=O)C3(C(F)(F)F)CC(F)(F)C3)C3CC3)C(=O)N[C@@H](CC(C)C)C(=O)N2C)cn1 [Example 265] ({cBuCO(3,3-F2-1-CF3)}-[Pro(trans-4-F)][Gly(cPr)][NMehhhLys(Me)]L[X195]; lactam 3-C)",7.70,7.70,6.19,10 nM,20 nM
CCN1CCCCCCC[C@H](N(C)C(=O)[C@@H](NC(=O)[C@@H]2C[C@@H](F)CN2C(=O)C2(C(F)(F)F)CC(F)(F)C2)C2CC2)C(=O)N[C@@H](CC(C)C)C(=O)N(C)[C@@H](Cc2cc(Cl)ccc2-c2ccc(N3CCOCC3)cc2)C1=O [Example 404],7.70,7.70,5.82,20 nM,30 nM
